The target of this assay is IRE-1α (Homo sapiens (Human), UniProt O75460). Briefly: Cellular EC50: endogenous XBP-1 splicing in myeloma cells (MM.1s, DTT stress, RT-PCR). In kind it is cell-based. The note with it: average cellular EC50, XBP-1 splicing in myeloma cells. How it is done: Human myeloma MM.1s cells are incubated with a compound for 1.25 hours before stressing the cells with 2 mM dithiothreitol (DTT). After an additional 45 minutes (2 hours total) with compound and DTT, the cells are harvested with TRIZOL® (a mono-phasic solution of phenol and guanidine isothiocyanate), and total RNA is prepared as directed by the manufacturer (Invitrogen). Human XBP-1 is amplified by RT-PCR with the following primers, which flank the 26 base unconventional intron excised by IRE-1α:
RT-PCR of unstressed (U) cells then generates the upper band. When cells are stressed (S) with the endoplasmic reticulum (ER) stressing agent DTT, IRE-1α is activated due to accumulating unfolded protein and the resulting RT-PCR product is 26 base pairs shorter.
Compounds which pass specificity assays are assayed for cellular EC50 using endogenous XBP-1 splicing in myeloma cells. XBP-1 is regulated through the excision of a 26 nucleotide intron from the XBP-1 mRNA by the highly specific endoribonuclease activity of IRE-1α. […] This splicing event is used to measure IRE-1α activity on XBP-1 mRNA in cells and tissues.
Briefly, compounds are incubated in the presence or absence of an ER stress agent (e.g., DTT), and the ratio of XBP-1u (unspliced) to XBP-1s (spliced) is quantified by RT-PCR. The ED50 is determined as the 50% XBP-1s to total XPB-1 levels.

Molecules are shown by their SMILES. A value given as a limit tells only on which side of the number the result lay.

Sequence of IRE-1α (O75460 19-977): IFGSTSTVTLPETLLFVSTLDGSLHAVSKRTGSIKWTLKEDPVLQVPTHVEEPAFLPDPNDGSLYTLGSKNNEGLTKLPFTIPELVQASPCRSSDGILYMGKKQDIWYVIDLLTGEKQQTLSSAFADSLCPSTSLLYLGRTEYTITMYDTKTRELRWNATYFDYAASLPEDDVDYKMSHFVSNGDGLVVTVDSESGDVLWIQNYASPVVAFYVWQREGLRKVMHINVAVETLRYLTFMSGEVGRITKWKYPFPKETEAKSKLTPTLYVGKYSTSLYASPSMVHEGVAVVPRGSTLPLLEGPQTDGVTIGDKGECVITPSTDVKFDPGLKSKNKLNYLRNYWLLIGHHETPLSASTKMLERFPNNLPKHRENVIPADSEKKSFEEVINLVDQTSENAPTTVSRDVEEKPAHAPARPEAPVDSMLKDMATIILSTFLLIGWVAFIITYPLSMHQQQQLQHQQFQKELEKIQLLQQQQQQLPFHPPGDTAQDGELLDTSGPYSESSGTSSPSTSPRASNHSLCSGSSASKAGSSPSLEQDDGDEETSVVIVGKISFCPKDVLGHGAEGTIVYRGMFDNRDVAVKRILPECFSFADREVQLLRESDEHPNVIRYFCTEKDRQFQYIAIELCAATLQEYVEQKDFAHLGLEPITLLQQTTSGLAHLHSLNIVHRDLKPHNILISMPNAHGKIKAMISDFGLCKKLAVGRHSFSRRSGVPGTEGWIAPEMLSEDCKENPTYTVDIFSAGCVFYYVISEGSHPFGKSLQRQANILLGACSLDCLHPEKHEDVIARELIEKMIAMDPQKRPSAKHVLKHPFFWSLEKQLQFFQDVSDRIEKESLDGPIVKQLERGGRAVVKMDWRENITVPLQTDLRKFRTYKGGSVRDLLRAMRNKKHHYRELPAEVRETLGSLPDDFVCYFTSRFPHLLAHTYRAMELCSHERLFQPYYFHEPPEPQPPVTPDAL

Usually EC50 stands for the concentration at which the effect is half-maximal. On to `COc1cc2c(C)c(CCC(=O)NCCN(C)C)c(=O)oc2c(C=O)c1O` [Example 175], for which the EC50 is more than 10 µM.

Turning to `COc1cc2c(C)c(CC(=O)N3CCN(C)CC3)c(=O)oc2c(C=O)c1O` [Example 168], the EC50 is less than 10 µM.

Compound `O=Cc1c(O)ccc2[nH]c(C(=O)NCCN3CCOCC3)cc12` [Example 277] registered an EC50 of more than 10 µM.

In turn, `[2H]C(=O)c1c(O)ccc2c(C)c(-c3ccc(C(=O)NCCN4CCOCC4)cc3)c(=O)oc12` [Example 116] came in with an EC50 of less than 10 µM.

The compound `COCCNC(=O)Cc1c(C)c2c(OCCOC)cc(O)c(C=O)c2oc1=O` [Example 159] returned an EC50 of less than 10 µM.

Turning to `COc1cc2c(C)c(-c3ccc(N4CCOCC4)nc3)c(=O)oc2c(C=O)c1O` [Example 114], the EC50 is less than 10 µM.

As to `CCNC(=O)Cc1c(C)oc2c(C=O)c(O)ccc2c1=O` [Example 223], the EC50 was less than 10 µM.

`Cc1oc2c(C=O)c(O)ccc2c(=O)c1CCC(=O)NCCN1CCOCC1` [Example 219] had an EC50 of more than 10 µM.

As to `COCCNC(=O)Cc1c(C)c2cc(OCCOC)c(O)c(C=O)c2oc1=O` [Example 190], the EC50 was less than 10 µM.

`COCCNC(=O)Cc1c(C)c2cc(OCCN3CCOCC3)c(O)c(C=O)c2oc1=O` [Example 205] came in with an EC50 of 10 µM.

`CCOC(=O)CCc1c(C)c2cc(N(C)C(C)=O)c(O)c(C=O)c2oc1=O` [Example 144]: the EC50 was more than 10 µM.

For `COc1cc2c(C)c(-c3ccc(C(=O)NCCN4CCOCC4)s3)c(=O)oc2c(C=O)c1O` [Example 143], the EC50 is less than 10 µM.

As for `O=Cc1c(O)ccc2sc(CCC(=O)N3CCOCC3)cc12` [Example 268], the EC50 is more than 10 µM.

Compound `CN1CCN(C(=O)CCc2nc3ccc(O)c(C=O)c3n2C)CC1` [Example 239] had an EC50 of more than 10 µM.

As for `Cc1c(CC(=O)N2CCOCC2)c(=O)oc2c(C=O)c(O)c(OCCN3CCOCC3)cc12` [Example 206], the EC50 was found to be 10 µM. This lies in the double-digit micromolar range.

As for `COCCOc1cc(O)c(C=O)c2oc(=O)c(CC(=O)N3CCN(C)CC3)c(C)c12` [Example 161], the 50% effective concentration (EC50) is less than 10 µM.

`Cc1c(-c2cccc(C(=O)N3CCN(C)CC3)c2)c(=O)oc2c(C=O)c(O)ccc12` [Example 10] displayed an EC50 of less than 10 µM.

`O=Cc1c(O)ccc2nc(SCC(=O)O)[nH]c12` [Example 63] gave an EC50 of more than 10 µM.

In turn, `COc1cc(O)c(C=O)c2oc(=O)c(CC(=O)N3CCN(C)CC3)c(C)c12` [Example 178] had a 50% effective concentration (EC50) of less than 10 µM.

`COc1cc2c(=O)c(CC(=O)NCCN(C)C)c(C)oc2c(C=O)c1O` [Example 211]: the EC50 was more than 10 µM.

Take `COCCNC(=O)CCc1c(C)c2cc(OCCOC)c(O)c(C=O)c2oc1=O` [Example 184]: the 50% effective concentration (EC50) was less than 10 µM.

For the compound `Cc1c(-c2ccc(N3CCN(C)CC3)nc2)c(=O)oc2c(C=O)c(O)ccc12` [Example 14], the EC50 is less than 10 µM.

For `COc1cc2c(CN3CCOCC3)c(C)c(=O)oc2c(C=O)c1O` [Example 132], the EC50 was less than 10 µM.

The compound `COCCNC(=O)Cc1c(C)c2c(OC)cc(O)c(C=O)c2oc1=O` [Example 176] showed an EC50 of less than 10 µM.

As for `Cc1c(-c2ccc(C(=O)N3CCOCC3)cc2)c(=O)oc2c(C=O)c(O)ccc12` [Example 12], the EC50 is less than 10 µM.

The compound `CN1CCN(c2ncc(C(=O)N3CCc4c(ccc(O)c4C=O)C3)s2)CC1` [Example 38] yielded an EC50 of more than 10 µM.

For the compound `CN1CCN(C(=O)c2cc3c(C=O)c(O)ccc3o2)CC1` [Example 284], the EC50 was more than 10 µM.

As to `COc1cc2c(C)c(-c3ccc(C(=O)N4CCN(C)CC4)s3)c(=O)oc2c(C=O)c1O` [Example 141], the EC50 is less than 10 µM.

`O=Cc1c(O)ccc2oc(C(=O)NCCN3CCOCC3)cc12` [Example 286] registered an EC50 of less than 10 µM.

`Cc1oc2c(C=O)c(O)ccc2c(=O)c1CCC(=O)N1CCOCC1` [Example 216]: the EC50 was less than 10 µM.

`CCc1cc2c(=O)c(-c3nc(C)cs3)coc2c(C=O)c1O` [Example 39]: the EC50 is more than 10 µM.

For the compound `COCCOc1cc2c(C)c(CCC(=O)N3CCOCC3)c(=O)oc2c(C=O)c1O` [Example 181], the EC50 is less than 10 µM.

For the compound `COc1cc(O)c(C=O)c2oc(C)c(CC(=O)N3CCOCC3)c(=O)c12` [Example 227], the EC50 is less than 10 µM.

For `COCCOc1cc(O)c(C=O)c2oc(=O)c(C)c(C)c12` [Example 165], the EC50 is less than 10 µM.

In the case of `Cc1c(-c2ccc(C(=O)NCCN3CCOCC3)cc2)c(=O)oc2c(C=O)c(O)c(Cl)cc12` [Example 151], the EC50 was more than 10 µM.

Compound `COc1cc2c(C)c(C)c(=O)oc2c(C=O)c1O` [Example 199] returned an EC50 of more than 10 µM.

In the case of `COc1cc2c(C)c(CCC(=O)N3CCOCC3)c(=O)oc2c(C=O)c1O` [Example 172], the EC50 was less than 10 µM.

In turn, `CCNC(=O)CCc1c(C)c2cc(OCCOC)c(O)c(C=O)c2oc1=O` [Example 183] had an EC50 of less than 10 µM.

As to `Cc1c(-c2cccc(C(=O)N(C)C)c2)c(=O)oc2c(C=O)c(O)ccc12` [Example 20], the EC50 was more than 10 µM.

In turn, `C=CCc1c(C)c2c(OC)cc(O)c(C=O)c2oc1=O` [Example 126] returned an EC50 of less than 10 µM.

On to `CCc1cc2c(C)c(-c3ccc(C(=O)N4CCOCC4)cc3)c(=O)oc2c(C=O)c1O` [Example 119], for which the EC50 is more than 10 µM.

`CN1CCN(C(=O)CCc2nc3c(C=O)c(O)ccc3n2C)CC1` [Example 244] registered an EC50 of more than 10 µM.

On to `COCCOc1cc2c(C)c(CCC(=O)NCCN(C)C)c(=O)oc2c(C=O)c1O` [Example 185], for which the EC50 was more than 10 µM.

In the case of `COCCNC(=O)CCc1nc2c(C=O)c(O)ccc2o1` [Example 249], the EC50 was more than 10 µM.

Take `COc1cc(O)c(C=O)c2oc(=O)c(CCC(=O)NCCN3CCOCC3)c(C)c12` [Example 196]: the EC50 is less than 10 µM.

Regarding `COc1cc2c(C)c(CC(=O)NCCN(C)C)c(=O)oc2c(C=O)c1O` [Example 170], the EC50 was less than 10 µM.

For `Cc1c(-c2ccc(C(=O)N3CCOCC3)cc2)c(=O)oc2c(C=O)c(O)c(Cl)cc12` [Example 67], the 50% effective concentration (EC50) is more than 10 µM.

In the case of `COC(=O)c1cccc(-c2nc3ccc(O)c(C=O)c3[nH]2)c1` [Example 65], the EC50 is less than 10 µM.

As for `COCCc1c(C)c2c(OC)cc(O)c(C=O)c2oc1=O` [Example 124], the EC50 was less than 10 µM.

`O=Cc1c(O)ccc2c1CCN(Cc1ccccc1)C2` [Example 28] had an EC50 of more than 10 µM.

Compound `COCCOc1cc(O)c(C=O)c2oc(=O)c(CC(=O)N3CCOCC3)c(C)c12` [Example 160] displayed an EC50 of less than 10 µM.

On to `COc1cc2c(=O)c(CC(=O)N3CCOCC3)c(C)oc2c(C=O)c1O` [Example 207], for which the EC50 is more than 10 µM.

`COc1cc(O)c(C=O)c2oc(=O)c(C)c(CN3CCOCC3)c12` [Example 134] yielded an EC50 of less than 10 µM.

The compound `O=Cc1c(O)ccc2sc(CC(=O)O)cc12` [Example 265] registered an EC50 of more than 10 µM.

`O=Cc1c(O)ccc2ocnc12` [Example 257] yielded an EC50 of more than 10 µM.

`CCNC(=O)c1cc2c(C=O)c(O)ccc2o1` [Example 285]: the EC50 was less than 10 µM.

Compound `COCc1c(CCC(=O)N2CCOCC2)c(=O)oc2c(C=O)c(O)c(OC)cc12` [Example 139] showed an EC50 of less than 10 µM.

`O=Cc1c(O)ccc2[nH]c(C(=O)N3CCOCC3)cc12` [Example 274]: the EC50 is more than 10 µM.

In turn, `Cc1c(CC(=O)N2CCOCC2)c(=O)oc2c(C=O)c(O)ccc12` [Example 129] returned an EC50 of less than 10 µM.

`O=Cc1c(O)ccc2c(=O)c(-c3cnn(-c4ccccc4)c3)coc12` [Example 40] gave an EC50 of more than 10 µM.

Regarding `O=Cc1c(O)ccc2nc(-c3cccc(C(=O)O)c3)[nH]c12` [Example 64], the EC50 was more than 10 µM.

`COCCc1c(C)c2c(O)cc(O)c(C=O)c2oc1=O` [Example 123] registered an EC50 of less than 10 µM.

Compound `CCNC(=O)CCc1c(C)oc2c(C=O)c(O)ccc2c1=O` [Example 217] registered an EC50 of less than 10 µM.

Compound `Cc1oc2c(C=O)c(O)ccc2c(=O)c1CC(=O)NCCN1CCOCC1` [Example 225] had an EC50 of more than 10 µM.

In the case of `Cc1oc2c(C=O)c(O)ccc2c(=O)c1CC(=O)NCCN(C)C` [Example 224], the EC50 is more than 10 µM.

Take `O=Cc1c(O)ccc2sc(C(=O)N3CCOCC3)cc12` [Example 259]: the EC50 is more than 10 µM.

Take `COc1cc2c(=O)c(CCC(=O)N3CCN(C)CC3)c(C)oc2c(C=O)c1O` [Example 94]: the EC50 was more than 10 µM.

Take `COCCOc1cc(O)c(C=O)c2oc(=O)c(CCC(=O)N3CCN(C)CC3)c(C)c12` [Example 154]: the EC50 is less than 10 µM.

For the compound `CN1CCN(C(=O)c2cc3c(C=O)c(O)ccc3s2)CC1` [Example 260], the EC50 is more than 10 µM.

In turn, `COc1cc2c(C)c(CC(=O)NCCO)c(=O)oc2c(C=O)c1O` [Example 148] gave an EC50 of more than 10 µM.

For `COCCNC(=O)CCc1c(COC)c2cc(OC)c(O)c(C=O)c2oc1=O` [Example 138], the EC50 is more than 10 µM.

In turn, `Cc1c(CCC(=O)N2CCN(C)CC2)c(=O)oc2c(C=O)c(O)ccc12` [Example 15] returned an EC50 of less than 10 µM.

Turning to `CCNC(=O)c1cc2c(C=O)c(O)ccc2s1` [Example 261], the EC50 is less than 10 µM.

The compound `Cn1c(CCC(=O)NCCN2CCOCC2)nc2c(C=O)c(O)ccc21` [Example 243] gave an EC50 of more than 10 µM.

`COc1cc(O)c(C=O)c2oc(=O)c(CCC(=O)N3CCOCC3)c(C)c12` [Example 192] came in with an EC50 of less than 10 µM.

The values are drawn from patent US9693992B2 (MannKind Corporation, priority 2010, dated 2017).
